Experimental data published in ChEMBL document CHEMBL5316329, “Structure-Based Optimization of 2,4,5-Trisubstituted Pyrimidines as Potent HIV-1 Non-Nucleoside Reverse Transcriptase Inhibitors: Exploiting the Tolerant Regions of the Non-Nucleoside Reverse Transcriptase Inhibitors' Binding Pocket” (J Med Chem, 2023).
pEC50, pIC50: −log10 of the molar value.

Experiments:
[1] = target: Human immunodeficiency virus type 1 reverse transcriptase (Human immunodeficiency virus 1, UniProt Q72547); test: Inhibition of wild-type HIV-1 reverse transcriptase assessed as inhibition of biotin-dUTP incorporation
[2] = test system: Human immunodeficiency virus 1; test: Antiviral activity against HIV-1 harboring Y181C mutant infected in human MT4 cells assessed as virus-induced cytopathicity treated for 5 days by MTT assay; format: functional, organism-based; conditions: Human immunodeficiency virus 1, MT4, 120 h; read-out: EC50
[3] = Cytotoxicity against human MT4 cells assessed as reduction in cell viability treated for 5 days by MTT assay; format: toxicity, cell-based; conditions: time 5 day
[4] = test system: Human immunodeficiency virus 1; test: Antiviral activity against NNRTI-resistant HIV-1 RES056 infected in human MT4 cells assessed as virus-induced cytopathicity treated for 5 days by MTT assay; format: functional, organism-based; conditions: Human immunodeficiency virus 1, RES056, MT4, 120 h
[5] = Selectivity index, ratio of CC50 for human MT4 cells to EC50 for NNRTI-resistant HIV-1 RES056 infected in human MT4 cells; format: toxicity, cell-based; conditions: read-out: Selectivity Index
[6] = test system: Human immunodeficiency virus 1; test: Antiviral activity against HIV-1 harboring K103N mutant infected in human MT4 cells assessed as virus-induced cytopathicity treated for 5 days by MTT assay; format: functional, organism-based; conditions: Human immunodeficiency virus 1, MT4, 120 h; read-out: EC50
[7] = Selectivity index, ratio of CC50 for human MT4 cells to EC50 for wild-type HIV-1 IIIB infected in human MT4 cells; format: toxicity, cell-based; conditions: read-out: Selectivity Index
[8] = test system: Human immunodeficiency virus 1; test: Antiviral activity against HIV-1 harboring L100I mutant infected in human MT4 cells assessed as virus-induced cytopathicity treated for 5 days by MTT assay; format: functional, organism-based; conditions: Human immunodeficiency virus 1, MT4, 120 h; read-out: EC50
[9] = test system: Human immunodeficiency virus 1; test: Antiviral activity against HIV-1 F227L/V106A mutant infected in human MT4 cells assessed as virus-induced cytopathicity treated for 5 days by MTT assay; format: functional, organism-based; conditions: Human immunodeficiency virus 1, MT4, 120 h; read-out: EC50
[10] = test system: Human immunodeficiency virus 1; test: Antiviral activity against HIV-1 E138K mutant infected in human MT4 cells assessed as virus-induced cytopathicity treated for 5 days by MTT assay; format: functional, organism-based; conditions: Human immunodeficiency virus 1, MT4, 120 h; read-out: EC50
[11] = test system: Human immunodeficiency virus 1; test: Antiviral activity against HIV-1 harboring Y188L mutant infected in human MT4 cells assessed as virus-induced cytopathicity treated for 5 days by MTT assay; format: functional, organism-based; conditions: Human immunodeficiency virus 1, MT4, 120 h; read-out: EC50
[12] = test system: Human immunodeficiency virus 1; test: Antiviral activity against wild-type HIV-1 IIIB infected in human MT4 cells assessed as virus-induced cytopathicity treated for 5 days by MTT assay; format: functional, organism-based; conditions: Human immunodeficiency virus 1, IIIB, MT4, 120 h
Cytochrome P450 2C19 = Cytochrome P450 2C19 (Homo sapiens, UniProt P33261); test: Inhibition of CYP2C19 (unknown origin); format: ADME
Cytochrome P450 2D6 = Cytochrome P450 2D6 (Homo sapiens, UniProt P10635); test: Inhibition of CYP2D6 (unknown origin); format: ADME
Cytochrome P450 2C9 = Cytochrome P450 2C9 (Homo sapiens, UniProt P11712); test: Inhibition of CYP2C9 (unknown origin); format: ADME
Cytochrome P450 3A4 = Cytochrome P450 3A4 (Homo sapiens, UniProt P08684); test: Inhibition of CYP3A4 (unknown origin) using midazolam as substrate; format: ADME
Cytochrome P450 1A2 = target: T1, Cytochrome P450 1A2 (Homo sapiens, UniProt P05177); test: Inhibition of CYP1A2 (unknown origin); format: ADME
T1 sequence (P05177 whole entry): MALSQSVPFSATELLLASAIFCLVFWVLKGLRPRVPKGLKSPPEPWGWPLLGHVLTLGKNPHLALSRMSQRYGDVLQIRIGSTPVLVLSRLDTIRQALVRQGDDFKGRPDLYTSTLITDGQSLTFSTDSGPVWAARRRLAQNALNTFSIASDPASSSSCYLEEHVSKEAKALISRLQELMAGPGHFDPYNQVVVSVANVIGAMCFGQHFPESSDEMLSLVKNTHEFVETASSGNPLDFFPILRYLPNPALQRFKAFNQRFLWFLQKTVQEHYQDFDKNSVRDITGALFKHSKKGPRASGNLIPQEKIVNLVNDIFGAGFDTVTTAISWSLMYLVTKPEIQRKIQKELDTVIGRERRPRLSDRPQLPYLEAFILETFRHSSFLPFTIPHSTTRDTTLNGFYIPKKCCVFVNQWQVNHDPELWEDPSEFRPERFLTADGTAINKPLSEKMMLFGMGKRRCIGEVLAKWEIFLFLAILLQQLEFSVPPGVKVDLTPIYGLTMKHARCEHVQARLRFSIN

Cytochrome P450 2C9, sequence (P11712 whole entry): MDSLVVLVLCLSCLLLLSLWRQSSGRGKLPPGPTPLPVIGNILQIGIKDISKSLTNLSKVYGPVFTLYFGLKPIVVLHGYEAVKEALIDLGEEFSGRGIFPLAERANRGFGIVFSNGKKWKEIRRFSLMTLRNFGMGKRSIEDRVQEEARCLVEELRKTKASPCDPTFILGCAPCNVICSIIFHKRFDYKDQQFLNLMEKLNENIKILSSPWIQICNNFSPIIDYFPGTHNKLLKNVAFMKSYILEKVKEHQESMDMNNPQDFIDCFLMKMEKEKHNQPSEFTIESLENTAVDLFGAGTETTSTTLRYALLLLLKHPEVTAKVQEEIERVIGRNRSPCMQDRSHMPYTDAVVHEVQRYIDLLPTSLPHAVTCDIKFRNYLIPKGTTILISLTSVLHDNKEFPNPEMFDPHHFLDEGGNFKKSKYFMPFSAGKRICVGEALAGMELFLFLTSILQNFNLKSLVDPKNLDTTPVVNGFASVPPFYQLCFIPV
Cytochrome P450 2C19, sequence (P33261 whole entry): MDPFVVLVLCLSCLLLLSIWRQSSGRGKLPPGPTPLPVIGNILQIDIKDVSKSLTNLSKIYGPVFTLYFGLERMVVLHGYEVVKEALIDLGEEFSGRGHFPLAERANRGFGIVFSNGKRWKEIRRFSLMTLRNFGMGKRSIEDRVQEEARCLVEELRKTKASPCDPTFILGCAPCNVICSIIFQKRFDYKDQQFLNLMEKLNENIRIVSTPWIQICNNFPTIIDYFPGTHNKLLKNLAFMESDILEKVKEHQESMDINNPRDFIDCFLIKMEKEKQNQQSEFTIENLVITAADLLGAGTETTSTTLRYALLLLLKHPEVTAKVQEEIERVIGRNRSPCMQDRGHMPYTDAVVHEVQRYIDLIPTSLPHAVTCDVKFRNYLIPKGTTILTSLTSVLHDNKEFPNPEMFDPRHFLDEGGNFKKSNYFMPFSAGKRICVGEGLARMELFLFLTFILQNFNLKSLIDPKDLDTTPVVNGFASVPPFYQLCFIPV
Cytochrome P450 2D6, sequence (P10635 whole entry): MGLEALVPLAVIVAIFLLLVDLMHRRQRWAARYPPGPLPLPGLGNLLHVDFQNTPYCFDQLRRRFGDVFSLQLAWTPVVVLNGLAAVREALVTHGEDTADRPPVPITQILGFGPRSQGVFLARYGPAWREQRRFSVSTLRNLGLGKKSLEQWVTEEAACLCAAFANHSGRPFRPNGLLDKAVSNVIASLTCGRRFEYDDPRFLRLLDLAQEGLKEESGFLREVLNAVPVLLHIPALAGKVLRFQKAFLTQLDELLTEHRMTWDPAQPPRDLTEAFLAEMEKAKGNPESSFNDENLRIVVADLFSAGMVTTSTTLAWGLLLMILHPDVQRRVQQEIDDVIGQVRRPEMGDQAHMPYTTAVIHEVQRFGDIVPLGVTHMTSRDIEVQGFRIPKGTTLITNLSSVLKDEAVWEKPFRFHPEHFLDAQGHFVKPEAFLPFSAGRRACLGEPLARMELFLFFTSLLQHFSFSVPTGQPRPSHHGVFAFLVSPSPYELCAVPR
Cytochrome P450 3A4, sequence (P08684 whole entry): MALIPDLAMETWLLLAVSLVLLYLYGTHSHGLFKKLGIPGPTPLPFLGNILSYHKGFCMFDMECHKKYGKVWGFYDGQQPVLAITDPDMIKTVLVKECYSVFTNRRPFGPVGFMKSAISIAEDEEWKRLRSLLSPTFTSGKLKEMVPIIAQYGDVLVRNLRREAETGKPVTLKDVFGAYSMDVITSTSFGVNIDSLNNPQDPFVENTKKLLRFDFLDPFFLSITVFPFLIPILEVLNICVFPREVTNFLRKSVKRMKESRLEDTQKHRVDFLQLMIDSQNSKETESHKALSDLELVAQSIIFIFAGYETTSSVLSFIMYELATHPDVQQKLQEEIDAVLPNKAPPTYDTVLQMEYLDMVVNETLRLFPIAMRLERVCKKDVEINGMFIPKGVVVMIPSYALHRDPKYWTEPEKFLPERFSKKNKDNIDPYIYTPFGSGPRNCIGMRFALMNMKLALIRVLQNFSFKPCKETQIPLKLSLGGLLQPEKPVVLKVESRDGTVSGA

SMILES | pIC50 [1] | pEC50 [2] | CC50 at 120 h [3] | pEC50 [4] | selectivity ratio [5] | pEC50 [6] | selectivity ratio [7] | pEC50 [8] | pEC50 [9] | pEC50 [10] | pEC50 [11] | pEC50 [12] | pIC50 (Cytochrome P450 2C19) | pIC50 (Cytochrome P450 2D6) | pIC50 (Cytochrome P450 2C9) | pIC50 (Cytochrome P450 3A4) | pIC50 (Cytochrome P450 1A2)
Cc1cc(/C=C/C#N)cc(C)c1Oc1nc(NC2CCN(Cc3ccc(C(N)=O)cc3)CC2)ncc1-c1ccc2c(c1)OCO2 | 6.96 | 8.03 | 5320 nM | 7.42 | 139 | 8.25 | 1280 | 8.09 | 7.33 | 7.71 | 7.24 | 8.38 |  |  |  |  | 
Cc1cc(/C=C/C#N)cc(C)c1Cc1nc(NC2CCN(Cc3ccc(S(C)(=O)=O)cc3)CC2)ncc1-c1cncnc1 | 6.98 | 8.26 | 2900 nM | 7.85 | 207 | 8.44 | 796 | 8.50 | 8.04 | 8.23 | 7.66 | 8.44 | < 4.30 | 4.59 | 5.02 | 5.18 | < 4.30
Cc1cc(/C=C/C#N)cc(C)c1Oc1nc(NC2CCN(Cc3ccc(C(N)=O)cc3)CC2)ncc1-c1ccc(N)cc1 | 6.97 | 8.32 | 3910 nM | 7.72 | 207 | 8.45 | 1140 | 8.48 | 8.04 | 8.30 | 7.64 | 8.47 |  |  |  |  | 
Cc1cc(/C=C/C#N)cc(C)c1Oc1nc(NC2CCN(Cc3ccc(S(N)(=O)=O)cc3)CC2)ncc1-c1ccc(N)cc1 | 7.01 | 8.27 | 3810 nM | 7.63 | 185 | 8.41 | 1050 | 8.49 | 8.04 | 8.05 | 7.60 | 8.44 |  |  |  |  | 
Cc1cc(/C=C/C#N)cc(C)c1Oc1nc(NC2CCN(Cc3ccc(S(N)(=O)=O)cc3)CC2)ncc1-c1ccc(O)cc1 | 7.04 | 8.11 | 4440 nM | 7.58 | 170 | 8.38 | 1160 | 8.43 | 7.90 | 8.12 | 7.50 | 8.42 |  |  |  |  | 
Cc1cc(/C=C/C#N)cc(C)c1Oc1nc(NC2CCN(Cc3ccc(S(C)(=O)=O)cc3)CC2)ncc1-c1ccc(N)cc1 | 6.80 | 8.09 | 6740 nM | 7.47 | 198 | 8.31 | 1510 | 8.33 | 8.11 | 8.13 | 7.48 | 8.35 |  |  |  |  | 
Cc1cc(/C=C/C#N)cc(C)c1Oc1nc(NC2CCN(Cc3ccc(C(N)=O)cc3)CC2)ncc1-c1cccc(N)c1 | 6.86 | 8.00 | 8370 nM | 7.65 | 373 | 8.25 | 1480 | 7.96 | 7.78 | 8.04 | 7.29 | 8.25 |  |  |  |  | 
Cc1cc(/C=C/C#N)cc(C)c1Oc1nc(NC2CCN(Cc3ccc(C(N)=O)cc3)CC2)ncc1-c1cccc(O)c1 | 7.06 | 8.01 | 36900 nM | 7.45 | 1050 | 8.27 | 8000 | 7.94 | 7.88 | 7.68 | 7.41 | 8.34 |  |  |  |  | 
Cc1cc(/C=C/C#N)cc(C)c1Oc1nc(NC2CCN(Cc3ccc(S(N)(=O)=O)cc3)CC2)ncc1-c1cccc(O)c1 | 6.94 | 7.80 | 7850 nM | 7.44 | 215 | 8.25 | 1240 | 7.94 | 7.60 | 7.73 | 7.48 | 8.20 |  |  |  |  | 
Cc1cc(/C=C/C#N)cc(C)c1Oc1nc(NC2CCN(Cc3ccc(S(N)(=O)=O)cc3)CC2)ncc1-c1ccc2c(c1)OCO2 | 6.91 | 7.97 | 6400 nM | 7.33 | 136 | 8.20 | 1170 | 7.97 | 7.45 | 7.39 | 7.32 | 8.26 |  |  |  |  | 
Cc1cc(/C=C/C#N)cc(C)c1Cc1nc(NC2CCN(Cc3ccc(S(N)(=O)=O)cc3)CC2)ncc1-c1cncnc1 | 6.93 | 8.09 | 11300 nM | 7.42 | 299 | 8.30 | 2090 | 8.34 | 7.82 | 7.87 | 7.38 | 8.27 |  |  |  |  | 
CC(=O)c1ccc(-c2cnc(NC3CCN(Cc4ccc(S(N)(=O)=O)cc4)CC3)nc2Oc2c(C)cc(/C=C/C#N)cc2C)cc1 | 6.89 | 7.99 | 8090 nM | 7.39 | 198 | 8.29 | 1520 | 7.97 | 7.65 | 7.92 | 7.55 | 8.27 |  |  |  |  | 
Cc1cc(/C=C/C#N)cc(C)c1Oc1nc(NC2CCN(Cc3ccc(S(N)(=O)=O)cc3)CC2)ncc1-c1cccc(N)c1 | 6.87 | 6.99 | 6940 nM | 7.59 | 269 | 8.21 | 1130 | 8.15 | 7.94 | 7.95 | 7.33 | 8.21 |  |  |  |  | 
